Experimental data: patent US6737407B1, “Treatment of obesity” (Metabolic Pharmaceuticals, Ltd., priority 1997, dated 2004)
Bridges are numbered along the chain shown (N, C = ends). Where no end group is shown, it is not given here. [ ]: non-standard residue; d: D form. The star is where a group is joined. Pen = CC(C)(S)[C@H](N)C(=O)O; Acm = CC(=O)NC*

System: adipose tissues from male Zucker fatty (fa/fa) rats
Assay: In vitro inhibition of lipogenesis in isolated adipose tissue
Format: cell-based, rat
Conditions: for In vitro lipogenesis % of control / In vitro lipogenesis Activity / In vitro lipogenesis, rate of [C14]-glucose incorporation into [C14]-lipid: peptide 0.3 μM, insulin 0.1 mU/ml; for In vitro lipogenesis, rate of [C14]-glucose incorporation into [C14]-lipid: KRB buffer; for activity according to the in vivo and in vitro assay results (in words): structure-activity summary
Description: The rate of the incorporation of exogenous [C^14]-glucose into total lipid in adipose tissue was measured as the index of anti-lipogenic activity of hGH 177-191.
Adipose tissues were sliced into segments of approximately 200 mg each and then placed in Krebs-Ringer bicarbonate (KRB) buffer (pH 7.4) containing 2% defatted BSA, and glucose (0.1 mg/ml) and gassed with 95% O2-5% CO2 at 37° C. After 1 hr preincubation, the tissues were transferred to another 2 ml of fresh media containing [C^14]-glucose (final specific activity 0.05 μCi/μmol), and 0.3 μM of hGH 177-191 in the presence or absence of insulin (0.1 mU/ml) for a further 90 min incubation (conditions as above). Then the tissues were removed, washed thoroughly with KRB buffer and lipid was extracted with 5 ml of chlorofom/methanol (2:1, v/v) The extraction solution was washed with 2 ml of MeOH-H2O solution containing 0.1% MgCl2. A 2.5 ml aliquot of the washed extraction solution was taken and transferred to scintillation vials. The [C^14] radioactivity was measured with a liquid scintillation counter. The rates of total lipid synthesis were expressed as μmol [C^14]-glucose incorporated into lipid/g tissue/hr.

Substance	In vitro lipogenesis % of control	In vitro lipogenesis Activity	In vitro lipogenesis, rate of [C14]-glucose incorporation into [C14]-lipid	activity according to the in vivo and in vitro assay results (in words)
9402 (LRIVQC(Acm)RSVEGSCGF; not fully specified (residue 13); listed as Homo sapiens) [Compound 9402]	91 % of control	Inactive	222 ± 9 nmol/g tissue/hr	–
9617 (LRIVQCRSVEGSAGF; listed as Homo sapiens) [compound 9617]	–	–	–	inactive
9403 (LRKVQCRSVEGSCGF; disulfide 6-13; listed as Homo sapiens) [Compound 9403]	69 % of control	Active	167 ± 28 nmol/g tissue/hr	–
9610 (LRIVACRSVEGSCGF; disulfide 6-13; listed as Homo sapiens) [Compound 9610]	79 % of control	Active	192 ± 14 nmol/g tissue/hr	–
9502 (LRIVQ[Pen]RSVEGS[Pen]GF; disulfide 6-13; listed as Homo sapiens) [Compound 9502]	72 % of control	Active	174 ± 5 nmol/g tissue/hr	–
9401 (LRIVQCRSVEGSCGF; listed as Homo sapiens) [Compound 9401]	75 % of control	Active	161 ± 10 nmol/g tissue/hr	–
9408 (LRIVQCKSVEGSCGF; lactam 7-10; disulfide 6-13; listed as Homo sapiens) [compound 9408]	–	–	–	retains activity
9603 (LAIVQCRSVEGSCGF; listed as Homo sapiens) [Compound 9603]	93 % of control	Inactive	225 ± 18 nmol/g tissue/hr	–
9410 (H-LRIVQCRSVEGSCGF; disulfide 6-13; also: desamino N-terminus; listed as Homo sapiens) [Compound 9410]	59 % of control	Active	143 ± 20 nmol/g tissue/hr	–
9606 (LKIVQCRSVEGSCGF; disulfide 6-13; listed as Homo sapiens) [compound 9606]	–	–	–	retains activity
9405 (Ac-LRIVQCRSVEGSCGF; disulfide 6-13; listed as Homo sapiens) [Compound 9405]	68 % of control	Active	164 ± 17 nmol/g tissue/hr	–
9612 (LRIVQCRAVEGSCGF; disulfide 6-13; listed as Homo sapiens) [Compound 9612]	79 % of control	Active	191 ± 20 nmol/g tissue/hr	–
9602 (LRIVQCRSVEGSCAF; disulfide 6-13; listed as Homo sapiens) [Compound 9602]	73 % of control	Active	176 ± 27 nmol/g tissue/hr	–
9605 (KLRIVQCRSVEGSCGF; disulfide 7-14; listed as Homo sapiens) [Compound 9605]	76 % of control	Active	184 ± 41 nmol/g tissue/hr	–
9501 (LRIVQCRSVE[dA]SC[dA]F; disulfide 6-13; listed as Homo sapiens) [compound 9501]	–	–	–	activity being retained
9615 (LRIVQCRSVEASCGF; disulfide 6-13; listed as Homo sapiens) [Compound 9615]	76 % of control	Active	183 ± 17 nmol/g tissue/hr	–
9608 (LRAVQCRSVEGSCGF; disulfide 6-13; listed as Homo sapiens) [Compound 9608]	71 % of control	Active	173 ± 12 nmol/g tissue/hr	–

Substance	In vitro lipogenesis % of control	In vitro lipogenesis Activity	In vitro lipogenesis, rate of [C14]-glucose incorporation into [C14]-lipid	activity according to the in vivo and in vitro assay results (in words)
9501 (LRIVQCRSVE[dA]SC[dA]F; disulfide 6-13; listed as Homo sapiens) [Compound 9501]	76 % of control	Active	185 ± 6 nmol/g tissue/hr	–
9402 (LRIVQC(Acm)RSVEGSCGF; not fully specified (residue 13); listed as Homo sapiens) [compound 9402]	–	–	–	inactive
9609 (LRIAQCRSVEGSCGF; disulfide 6-13; listed as Homo sapiens) [Compound 9609]	78 % of control	Active	188 ± 13 nmol/g tissue/hr	–
9614 (LRIVQCRSVAGSCGF; listed as Homo sapiens) [Compound 9614]	96 % of control	Inactive	233 ± 13 nmol/g tissue/hr	–
9407 (LRIVQCKSVEGSCGF; disulfide 6-13; listed as Homo sapiens) [Compound 9407]	71 % of control	Active	174 ± 16 nmol/g tissue/hr	–
9604 (YLRIVQCRSVEGSCGF; disulfide 7-14; listed as Homo sapiens) [Compound 9604]	49 % of control	Active	118 ± 16 nmol/g tissue/hr	–
9617 (LRIVQCRSVEGSAGF; listed as Homo sapiens) [Compound 9617]	92 % of control	Inactive	223 ± 16 nmol/g tissue/hr	–
9611 (LRIVQARSVEGSCGF; listed as Homo sapiens) [Compound 9611]	93 % of control	Inactive	224 ± 19 nmol/g tissue/hr	–
9406 (LRIVQCASVEGSCGF; listed as Homo sapiens) [Compound 9406]	97 % of control	Inactive	236 ± 17 nmol/g tissue/hr	–
9611 (LRIVQARSVEGSCGF; listed as Homo sapiens) [compound 9611]	–	–	–	inactive
9601 (LRIVQCRSVEGSCGA; disulfide 6-13; listed as Homo sapiens) [Compound 9601]	76 % of control	Active	185 ± 24 nmol/g tissue/hr	–
9607 (ARIVQCRSVEGSCGF; disulfide 6-13; listed as Homo sapiens) [Compound 9607]	82 % of control	Active	198 ± 12 nmol/g tissue/hr	–
9613 (LRIVQCRSAEGSCGF; disulfide 6-13; listed as Homo sapiens) [Compound 9613]	78 % of control	Active	189 ± 16 nmol/g tissue/hr	–
9618 (KKLRIVQCRSVEGSCGF; disulfide 8-15; listed as Homo sapiens) [Compound 9618]	77 % of control	Active	188 ± 19 nmol/g tissue/hr	–
9616 (LRIVQCRSVEGACGF; disulfide 6-13; listed as Homo sapiens) [Compound 9616]	84 % of control	Active	203 ± 19 nmol/g tissue/hr	–
9606 (LKIVQCRSVEGSCGF; disulfide 6-13; listed as Homo sapiens) [Compound 9606]	77 % of control	Active	187 ± 19 nmol/g tissue/hr	–
9404 (LRIVQCRSVEGSCGF-NH2; disulfide 6-13; N-terminus assumed; SMILES CC[C@H](C)[C@H](NC(=O)[C@H](CCCNC(=N)N)NC(=O)[C@@H](N)CC(C)C)C(=O)N[C@H](C(=O)N[C@@H](CCC(N)=O)C(=O)N[C@H]1CSSC[C@@H](C(=O)NCC(=O)N[C@@H](Cc2ccccc2)C(N)=O)NC(=O)[C@H](CO)NC(=O)CNC(=O)[C@H](CCC(=O)O)NC(=O)[C@H](C(C)C)NC(=O)[C@H](CO)NC(=O)[C@H](CCCNC(=N)N)NC1=O)C(C)C; listed as Homo sapiens) [Compound 9404]	77 % of control	Active	187 ± 18 nmol/g tissue/hr	–
